Among the data in PubChem BioAssay (NCI) are TGI values, retold here.

One may read the TGI as the concentration giving total growth inhibition.

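Where inhibition never reached the appropriate level, the endpoint shown equals the highest concentration tested. Otherwise, values were interpolated linearly from a five-concentration, 48-hour dose response in 96-well plates. At the TGI there is no net growth.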

Among the test systems are 786-0 renal; ACHN renal; HOP-62 NSCLC; HT29 colon; KM12 colon; MDA-MB-435; NCI-H522 lung; NCI/ADR-RES ovarian; RPMI-8226 leukemia; SF-295 CNS; SK-OV-3 ovarian; SNB-19 CNS; T-47D breast; HCC-2998 colon; MALME-3M melanoma; SK-MEL-28 melanoma; SNB-75 CNS; BT-549 breast.
Common to all, as to test: DTP human tumour cell line panel, 48 h

Regarding `CC(C)=Cc1cc(C)c2c3c(c(O)c(O)c(C)c13)C(C)=CC2=O`, the TGI with 786-0 renal was determined as 64.8 µM; in the experiment with ACHN renal, 56.2 µM; in the experiment with HOP-62 NSCLC, 47.2 µM; in the experiment on HT29 colon, 32.1 µM; with KM12 colon, 45.8 µM; in the experiment on MDA-MB-435, 55.1 µM. Moreover, the TGI was 41.2 µM in the experiment on NCI-H522 lung; 81.5 µM with NCI/ADR-RES ovarian; 15 µM with RPMI-8226 leukemia; 48.6 µM in the experiment with SF-295 CNS; 89 µM in the experiment on SK-OV-3 ovarian; above 100 µM in the experiment with SNB-19 CNS. The TGI in the experiment on T-47D breast came to 49.3 µM.

In the case of `CCN(CC)Cc1ccccc1CC(=O)N1c2ccccc2C(=O)Nc2cccnc21`, the total growth inhibition concentration (TGI) in the experiment with 786-0 renal, in the experiment on ACHN renal, in the experiment on HCC-2998 colon, in the experiment on HOP-62 NSCLC, in the experiment with HT29 colon and in the experiment with KM12 colon was above 100 µM throughout. For the same compound, the TGI in the experiment with MALME-3M melanoma, with MDA-MB-435, in the experiment with NCI-H522 lung, in the experiment with NCI/ADR-RES ovarian, in the experiment on RPMI-8226 leukemia and in the experiment on SF-295 CNS was above 100 µM in each case. The TGI in the experiment with SK-MEL-28 melanoma, in the experiment with SK-OV-3 ovarian, with SNB-19 CNS and with T-47D breast was above 100 µM each time.

Consider `CO/N=C(/C)c1cccc(Nc2nc3ccc(Cl)cc3c3[nH]c4ccccc4c23)c1`, for which the TGI stood at 20.5 µM with 786-0 renal; 13.5 µM in the experiment on ACHN renal; 24.4 µM in the experiment on HOP-62 NSCLC; 14.6 µM with KM12 colon; 21.4 µM with MDA-MB-435; 13.4 µM with NCI-H522 lung. In addition, the TGI in the experiment with NCI/ADR-RES ovarian amounted to 33 µM; with RPMI-8226 leukemia, 17 µM; with SF-295 CNS, 15.3 µM; in the experiment with SK-OV-3 ovarian, 49.6 µM; in the experiment on SNB-19 CNS it was 35.6 µM; with T-47D breast, 7.28 µM.

With `O=C(CC(O)(C(F)(F)F)C(F)(F)Cl)CC(O)(C(F)(F)F)C(F)(F)Cl` (stereo unspecified), the total growth inhibition concentration (TGI) in the experiment with 786-0 renal is above 10 µM; in the experiment with ACHN renal, above 10 µM; with HCC-2998 colon, above 10 µM; in the experiment with HOP-62 NSCLC, 5.85 µM; in the experiment with HT29 colon it was above 10 µM; in the experiment with KM12 colon it was above 10 µM. The TGI was 6.34 µM in the experiment with MALME-3M melanoma; above 10 µM in the experiment with MDA-MB-435; 8.78 µM in the experiment with NCI-H522 lung; 9.5 µM in the experiment on NCI/ADR-RES ovarian; above 10 µM in the experiment with RPMI-8226 leukemia; 7.91 µM in the experiment on SF-295 CNS. Also, the TGI in the experiment on SK-MEL-28 melanoma is above 10 µM; with SK-OV-3 ovarian, 4.69 µM; in the experiment with SNB-19 CNS it was above 10 µM; in the experiment on SNB-75 CNS, above 10 µM; in the experiment on T-47D breast, above 10 µM.

Consider `CN1CC(c2ccccc2)C(O)(C2(c3ccccc3)CN(C)CC(c3ccccc3)C2=O)C(c2ccccc2)C1` (stereo unspecified), for which the TGI in the experiment on 786-0 renal, with ACHN renal, with BT-549 breast, with HOP-62 NSCLC, in the experiment with HT29 colon and with KM12 colon was above 100 µM each time. Also, the TGI in the experiment on MDA-MB-435, in the experiment with NCI-H522 lung, in the experiment on NCI/ADR-RES ovarian, in the experiment with RPMI-8226 leukemia, in the experiment with SF-295 CNS and in the experiment with SK-MEL-28 melanoma was above 100 µM in each case. In addition, the TGI with SNB-19 CNS and in the experiment on T-47D breast was above 100 µM throughout.

`Cc1cc(C)c2c(n1)S(=O)(=O)N(CCCN1CCN(c3cccc(Cl)c3)CC1)/C(=C(\O)c1ccccc1)C2=O`: the concentration for total growth inhibition (TGI) with 786-0 renal, in the experiment with ACHN renal, in the experiment on BT-549 breast, in the experiment with HOP-62 NSCLC, in the experiment with HT29 colon and with KM12 colon was above 100 µM in each case. Also, the TGI with MALME-3M melanoma is above 100 µM; in the experiment on MDA-MB-435, above 100 µM; in the experiment on NCI-H522 lung it was above 100 µM; with NCI/ADR-RES ovarian it was above 100 µM; in the experiment with SF-295 CNS, 95.9 µM; with SK-MEL-28 melanoma it was above 100 µM. Further, the concentration for total growth inhibition (TGI) in the experiment on SK-OV-3 ovarian, in the experiment on SNB-19 CNS and with T-47D breast was above 100 µM each time.

Consider `O=C1C2=Cc3ccccc3OC2(O)Oc2ccccc21` (stereo unspecified), for which the total growth inhibition concentration (TGI) in the experiment on 786-0 renal, with HCC-2998 colon, with HOP-62 NSCLC, in the experiment with HT29 colon, with KM12 colon and in the experiment on MALME-3M melanoma was above 100 µM in each case. The TGI with MDA-MB-435, in the experiment on NCI/ADR-RES ovarian, in the experiment on RPMI-8226 leukemia, in the experiment with SF-295 CNS, in the experiment on SK-MEL-28 melanoma and in the experiment with SK-OV-3 ovarian was above 100 µM throughout. Moreover, the TGI in the experiment on SNB-75 CNS and with T-47D breast was above 100 µM throughout.

Take `COc1ccc2c(c1)CC1COc3cc(OC)ccc3C1O2` (stereo unspecified): the TGI in the experiment on 786-0 renal, with BT-549 breast, in the experiment on HCC-2998 colon, in the experiment with HOP-62 NSCLC, with HT29 colon and in the experiment with KM12 colon was above 100 µM throughout. In addition, the total growth inhibition concentration (TGI) with MALME-3M melanoma, in the experiment on MDA-MB-435, in the experiment on NCI-H522 lung, in the experiment with NCI/ADR-RES ovarian, with RPMI-8226 leukemia and in the experiment on SF-295 CNS was above 100 µM each time. Besides, the TGI in the experiment on SK-OV-3 ovarian and in the experiment with T-47D breast was above 100 µM in each case.

With `Cc1cn(C2C=CC(COP(=O)(OCc3ccc([N+](=O)[O-])o3)N(C)CCCCCl)O2)c(=O)[nH]c1=O` (stereo unspecified), the TGI in the experiment on 786-0 renal turned out to be 23.1 µM; in the experiment on ACHN renal it was 28.6 µM; with HOP-62 NSCLC it was 30.9 µM; in the experiment with HT29 colon, 27 µM; in the experiment on KM12 colon, 24.1 µM; with MALME-3M melanoma, 7.36 µM. Moreover, the total growth inhibition concentration (TGI) was 4.42 µM in the experiment on MDA-MB-435; 3.97 µM with NCI-H522 lung; above 100 µM with NCI/ADR-RES ovarian; 14.1 µM in the experiment with RPMI-8226 leukemia; 30 µM with SF-295 CNS; 22.4 µM in the experiment on SK-MEL-28 melanoma. The concentration for total growth inhibition (TGI) in the experiment on SK-OV-3 ovarian worked out at 24 µM; in the experiment on SNB-19 CNS, 21.3 µM; in the experiment with SNB-75 CNS, 10.8 µM; with T-47D breast it was 7.05 µM.
